Measurements published in ChEMBL document CHEMBL1697781, “Assessment of the health effects of chemicals in humans: II. Construction of an adverse effects database for QSAR modeling” (Curr Drug Discov Technol, 2004).

What was measured:
Conditions in all cases: human; call rule not given here
Hepatotoxicity [1] = assay: FDA HLAED, serum glutamic pyruvic transaminase (SGPT) increase
Hepatotoxicity [2] = assay: FDA HLAED, lactate dehydrogenase (LDH) increase
Hepatotoxicity [3] = assay: FDA HLAED, gamma-glutamyl transferase (GGT) increase
Hepatotoxicity [4] = assay: FDA HLAED, serum glutamic oxaloacetic transaminase (SGOT) increase
Hepatotoxicity [5] = assay: FDA HLAED, liver enzyme composite activity
Hepatotoxicity [6] = assay: FDA HLAED, alkaline phosphatase increase
For GGT Increase - Index Value in this document: reference of the scale not given here.
For LDH Increase - Index Value in this document: reference of the scale not given here.

Row | SMILES | SGPT Increase - Activity Score (Hepatotoxicity [1]) | SGPT Increase - Index Value (Hepatotoxicity [1]) | SGPT Increase - Number of Reports (Hepatotoxicity [1]) | LDH Increase - Activity Score (Hepatotoxicity [2]) | LDH Increase - Index Value (Hepatotoxicity [2]) | LDH Increase - Number of Reports (Hepatotoxicity [2]) | GGT Increase - Activity Score (Hepatotoxicity [3]) | GGT Increase - Index Value (Hepatotoxicity [3]) | GGT Increase - Number of Reports (Hepatotoxicity [3]) | SGOT Increase - Activity Score (Hepatotoxicity [4]) | SGOT Increase - Index Value (Hepatotoxicity [4]) | SGOT Increase - Number of Reports (Hepatotoxicity [4]) | Composite Activity - Active (Hepatotoxicity [5]) | Composite Activity - Marginal (Hepatotoxicity [5]) | Composite Activity - Score (Hepatotoxicity [5]) | Alkaline Phosphatase Increase - Activity Score (Hepatotoxicity [6]) | Alkaline Phosphatase Increase - Index Value (Hepatotoxicity [6]) | Alkaline Phosphatase Increase - Number of Reports (Hepatotoxicity [6]) | also measured
1 | CN1C(=O)OC(C)(C)C1=O [TRIMETHADIONE] | Marginally Active | No Shipping Units | >= 4 | Marginally Active | No Shipping Units | >= 4 | Marginally Active | No Shipping Units | >= 4 | Active | No Shipping Units | >= 4 | 2 | 3 | Active | Active | No Shipping Units | >= 4 | 
2 | COc1cc(NCc2ccc3nc(N)nc(N)c3c2C)cc(OC)c1OC [TRIMETREXATE] | Inactive | 38.8 | < 4 | Inactive | 38.8 | < 4 | Inactive | 0 | < 4 | Active | 77.5 | < 4 | 1 | 0 | Inactive | Inactive | 38.8 | < 4 | 
3 | CC(CN(C)C)CN1c2ccccc2CCc2ccccc21 (stereo unspecified) [TRIMIPRAMINE] | Inactive | 0 | < 4 | Inactive | 0 | < 4 | Inactive | 0 | < 4 | Inactive | 0 | < 4 | 0 | 0 | Inactive | Inactive | 0 | < 4 | 
4 | C[C@H](CCC(=O)O)[C@H]1CC[C@H]2[C@@H]3[C@@H](O)C[C@@H]4C[C@H](O)CC[C@]4(C)[C@H]3CC[C@]12C [URSODIOL] | Inactive | 4.8 | < 4 | Inactive | 4.8 | < 4 | Inactive | 4.8 | < 4 | Active | 9.7 | >= 4 | 2 | 0 | Active | Active | 14.5 | >= 4 | 
5 | CC(C)[C@H](N)C(=O)OCCOCn1cnc2c(=O)[nH]c(N)nc21 [VALACYCLOVIR] | Inactive | No Shipping Units | < 4 | Inactive | 0 | < 4 | Inactive | 0 | < 4 | Inactive | No Shipping Units | < 4 | 0 | 0 | Inactive | Inactive | No Shipping Units | < 4 | 
6 | CC(=O)O[C@H]1C[C@@H]2CC[C@@H]3[C@H](CC[C@@]4(C)[C@H]3C[C@H]([N+]3(C)CCCCC3)[C@@H]4OC(C)=O)[C@@]2(C)C[C@@H]1N1CCCCC1.[Br-] [VECURONIUM BROMIDE] | Inactive | 1 | < 4 | Inactive | 1 | < 4 | Inactive | 0 | < 4 | Inactive | 1 | < 4 | 0 | 0 | Inactive | Inactive | 0 | < 4 | 
7 | COc1ccc(C(CN(C)C)C2(O)CCCCC2)cc1 (stereo unspecified) [VENLAFAXINE] | Inactive | 2.3 | >= 4 | Inactive | 0.7 | >= 4 | Inactive | 0.9 | >= 4 | Inactive | 2.7 | >= 4 | 0 | 0 | Inactive | Inactive | 1.3 | >= 4 | 
8 | CCC1=C[C@@H]2CN(C1)Cc1c([nH]c3ccccc13)[C@@](C(=O)OC)(c1cc3c(cc1OC)N(C)[C@H]1[C@@](O)(C(=O)OC)[C@H](OC(C)=O)[C@]4(CC)C=CCN5CC[C@]31[C@@H]54)C2 [VINORELBINE] | Inactive | 1.9 | < 4 | Active | 4.7 | >= 4 | Inactive | 0.9 | < 4 | Inactive | 0.9 | < 4 | 1 | 0 | Inactive | Inactive | 2.8 | < 4 | 
9 | COc1cc(C(=O)NS(=O)(=O)c2ccccc2C)ccc1Cc1cn(C)c2ccc(NC(=O)OC3CCCC3)cc12 [ZAFIRLUKAST] | Active | 9.5 | >= 4 | Marginally Active | 3.7 | >= 4 | Inactive | 0.5 | < 4 | Active | 10.1 | >= 4 | 2 | 1 | Active | Inactive | 2.6 | >= 4 | 
10 | Nc1ccn([C@H]2CC[C@@H](CO)O2)c(=O)n1 [ZALCITABINE] | Inactive | 2.9 | < 4 | Inactive | 1.4 | < 4 | Inactive | 1.4 | < 4 | Active | 5.7 | >= 4 |  |  |  | Inactive | 2.9 | < 4 | Composite Activity - Active (Hepatotoxicity [5]; Liver): 1; Composite Activity - Marginal (Hepatotoxicity [5]; Liver): 0; Composite Activity - Score (Hepatotoxicity [5]; Liver): Inactive
11 | Cc1cn([C@H]2C[C@H](N=[N+]=[N-])[C@@H](CO)O2)c(=O)[nH]c1=O [ZIDOVUDINE] | Active | 4.8 | >= 4 | Active | 5.7 | >= 4 | Inactive | 0.9 | < 4 | Active | 12.7 | >= 4 | 4 | 0 | Active | Active | 5.1 | >= 4 | 
12 | CC(c1cc2ccccc2s1)N(O)C(N)=O (stereo unspecified) [ZILEUTON] | Active | 65.3 | >= 4 | Inactive | 11.9 | < 4 | Inactive | 5.9 | < 4 | Active | 47.5 | >= 4 | 3 | 0 | Active | Active | 29.7 | >= 4 | 
